Three compounds from ChEMBL document CHEMBL3779889, “Synthetic approaches to the 2014 new drugs” (Bioorg Med Chem, 2016) can be followed below.

SMILES strings stand for the structures. Counter-ions that a name gives are not always drawn.

Series [1] addresses T1, Sodium/glucose cotransporter 2 (Homo sapiens, UniProt P31639).
T1 sequence (P31639 whole entry): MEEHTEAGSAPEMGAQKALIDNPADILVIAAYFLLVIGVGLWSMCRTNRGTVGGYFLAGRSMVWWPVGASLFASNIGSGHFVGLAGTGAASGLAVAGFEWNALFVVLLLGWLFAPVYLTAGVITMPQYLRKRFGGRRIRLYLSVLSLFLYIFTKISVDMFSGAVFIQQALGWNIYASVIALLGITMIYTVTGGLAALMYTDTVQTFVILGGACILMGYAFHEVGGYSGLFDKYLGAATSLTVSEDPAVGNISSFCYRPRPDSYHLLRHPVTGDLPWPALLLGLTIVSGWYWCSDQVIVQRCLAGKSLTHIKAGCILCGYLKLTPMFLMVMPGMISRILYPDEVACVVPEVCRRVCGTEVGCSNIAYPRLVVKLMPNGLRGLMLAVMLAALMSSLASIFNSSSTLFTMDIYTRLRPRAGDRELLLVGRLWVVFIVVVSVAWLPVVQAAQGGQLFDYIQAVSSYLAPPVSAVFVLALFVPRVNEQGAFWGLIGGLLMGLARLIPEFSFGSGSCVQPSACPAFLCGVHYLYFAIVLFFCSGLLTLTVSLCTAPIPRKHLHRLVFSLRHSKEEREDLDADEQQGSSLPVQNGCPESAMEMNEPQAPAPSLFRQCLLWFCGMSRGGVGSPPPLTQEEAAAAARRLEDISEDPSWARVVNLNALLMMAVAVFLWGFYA
The series is described as follows: Competitive inhibition of human SGLT2 expressed in CHO-K1 cells assessed as inhibition of [14C]-alpha-methylglucoside uptake. Format: cell-based.

The subject of a further series is Hepatitis C virus. Nature of the series: Antiviral activity against HCV genotype 1a. It is filed as functional, organism-based, Hepacivirus hominis. The note with it: subtype 1a.
Series [2] can be described thus: Half life of compound in human plasma in presence of CYP3A inhibitor ritonavir. Format: ADME, organism-based. The note with it: with ritonavir (CYP3A inhibitor).
For series [3], the target named is Vascular endothelial growth factor receptor 2 (Homo sapiens, UniProt P35968). Nature of the series: Inhibition of VEGF2 receptor (unknown origin) by ELISA. On the technique in general: ELISA stands for enzyme-linked immunosorbent assay.
Vascular endothelial growth factor receptor 2, sequence (P35968 whole entry): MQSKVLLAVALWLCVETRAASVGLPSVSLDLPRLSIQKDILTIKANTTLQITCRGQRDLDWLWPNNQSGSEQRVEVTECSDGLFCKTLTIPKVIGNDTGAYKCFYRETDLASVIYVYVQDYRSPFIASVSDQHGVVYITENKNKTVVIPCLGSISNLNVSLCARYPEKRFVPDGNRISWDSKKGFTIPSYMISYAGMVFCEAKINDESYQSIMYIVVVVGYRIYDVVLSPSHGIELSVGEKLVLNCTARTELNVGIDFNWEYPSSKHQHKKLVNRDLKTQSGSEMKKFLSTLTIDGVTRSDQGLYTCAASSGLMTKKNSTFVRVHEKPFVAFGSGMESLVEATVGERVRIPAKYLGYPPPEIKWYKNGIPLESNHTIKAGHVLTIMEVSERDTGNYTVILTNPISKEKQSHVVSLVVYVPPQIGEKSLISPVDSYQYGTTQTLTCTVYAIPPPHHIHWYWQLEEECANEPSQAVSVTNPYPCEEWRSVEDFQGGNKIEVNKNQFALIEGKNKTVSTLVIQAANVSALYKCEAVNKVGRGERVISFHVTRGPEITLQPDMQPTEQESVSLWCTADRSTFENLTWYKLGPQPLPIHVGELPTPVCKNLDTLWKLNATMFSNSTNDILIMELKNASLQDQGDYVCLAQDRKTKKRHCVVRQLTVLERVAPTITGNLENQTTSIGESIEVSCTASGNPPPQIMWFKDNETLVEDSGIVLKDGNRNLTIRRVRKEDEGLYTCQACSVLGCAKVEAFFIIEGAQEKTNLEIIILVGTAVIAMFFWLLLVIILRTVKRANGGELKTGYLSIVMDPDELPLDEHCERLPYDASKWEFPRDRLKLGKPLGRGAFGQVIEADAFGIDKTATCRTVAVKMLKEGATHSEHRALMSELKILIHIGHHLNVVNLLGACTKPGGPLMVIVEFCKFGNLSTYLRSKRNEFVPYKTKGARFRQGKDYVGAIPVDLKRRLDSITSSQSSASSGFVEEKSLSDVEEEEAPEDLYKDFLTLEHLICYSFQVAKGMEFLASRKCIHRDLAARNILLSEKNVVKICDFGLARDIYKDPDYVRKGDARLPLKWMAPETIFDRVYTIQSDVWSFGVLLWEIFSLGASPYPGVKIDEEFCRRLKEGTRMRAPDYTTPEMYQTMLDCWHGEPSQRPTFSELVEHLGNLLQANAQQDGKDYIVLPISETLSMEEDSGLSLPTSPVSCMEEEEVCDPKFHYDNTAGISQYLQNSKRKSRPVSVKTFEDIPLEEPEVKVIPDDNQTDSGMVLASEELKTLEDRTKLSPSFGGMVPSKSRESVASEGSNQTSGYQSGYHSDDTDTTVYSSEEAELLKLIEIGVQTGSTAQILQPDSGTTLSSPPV

In the case of `CCOc1ccc(Cc2cc([C@@H]3S[C@H](CO)[C@@H](O)[C@H](O)[C@H]3O)c(OC)cc2C)cc1`, in series [1], the inhibition constant (Ki) – broadly, a dissociation constant, usually derived from enzyme kinetics or from competition with a known ligand – is 1.1 nM.

Take `Cc1cnc(C(=O)N[C@H]2CCCCC/C=C\[C@@H]3C[C@@]3(C(=O)NS(=O)(=O)C3CC3)NC(=O)[C@@H]3C[C@@H](Oc4nc5ccccc5c5ccccc45)CN3C2=O)cn1.O.O`: it took 1 nM to reach a half-maximal effect in the series with Hepatitis C virus (EC50). Further, in series [2], the half-life – broadly, the time in which the quantity being followed falls by half – was 5.5 h.

Regarding `N#CC1(c2ccc(NC(=O)c3cccnc3NCc3ccncc3)cc2)CCCC1` [RIVOCERANIB MESYLATE], in series [3], 1 nM corresponded to half-maximal inhibition (IC50).
